Laboratory results published in US20120029187A1, “HALOALKYLSULFONANILIDE DERIVATIVE” (Nissan Chemical Industries, Ltd., priority 2009, published 2012).

Experiments:
Assay type in all cases: in vivo
wild oat [1] = experiment: Test Example 3: herbicidal effects in soil treatment; settings: dose 3.2 g/a
How it was run: (§1)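 Seeds were sown in sterilized diluvial soil and covered with about 1.5 cm of soil. Compounds, formulated as emulsifiable concentrates and diluted with water, were sprayed evenly over the soil surface at set doses in g/a. Herbicidal effect was scored on a rating scale three weeks later.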

large crabgrass [2] = experiment: as above; settings: dose 3.2 g/a
How it was run: as §1

barnyardgrass [3] = experiment: as above; settings: dose 3.2 g/a
How it was run: as §1

redroot pigweed [4] = experiment: as above; settings: dose 3.2 g/a
How it was run: as §1

common lambsquater [5] = experiment: as above; settings: dose 3.2 g/a
How it was run: as §1

common ragweed [6] = experiment: as above; settings: dose 3.2 g/a
How it was run: as §1

posumbu knotweed [7] = experiment: as above; settings: dose 3.2 g/a
How it was run: as §1

velvetleaf [8] = experiment: as above; settings: dose 3.2 g/a
How it was run: as §1

common chickweed [9] = experiment: as above; settings: dose 3.2 g/a
How it was run: as §1

beadstraw [10] = experiment: as above; settings: dose 3.2 g/a
How it was run: as §1

Italian ryegrass [11] = experiment: as above; settings: dose 3.2 g/a
How it was run: as §1

water foxtail [12] = experiment: as above; settings: dose 3.2 g/a
How it was run: as §1

giant foxtail [13] = experiment: as above; settings: dose 3.2 g/a
How it was run: as §1

barnyardgrass [14] = experiment: Test Example 1: herbicidal effects in preemergence treatment under submerged conditions; settings: dose 2.52 g/a
How it was run: (§2)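 Flooded-paddy preemergence assay; EC diluted with water, surface-applied at weed seeding; doses g/a; rice transplanted at 2.5 leaves; 0–5 mortality score after 3 weeks.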

bulrush [15] = experiment: as above; settings: dose 2.52 g/a
How it was run: as §2

ducksalad [16] = experiment: as above; settings: dose 2.52 g/a
How it was run: as §2

transplanted rice = experiment: Test Example 1: preemergence treatment under submerged conditions, effect on crop; settings: dose 2.52 g/a
How it was run: as §2

wild oat [17] = experiment: Test Example 4: herbicidal effect in foliage treatment; settings: dose 3.2 g/a, three weeks after application
How it was run: (§3)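 Seeds sown in sterilized diluvial soil under ~1.5 cm soil cover and grown 14 days in a greenhouse at 25 to 30° C. Emulsifiable concentrates diluted with water were then sprayed uniformly on foliage at predetermined doses (g/a). Herbicidal effect was scored three weeks after application on a graded evaluation scale.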

large crabgrass [18] = experiment: as above; settings: dose 3.2 g/a, three weeks after application
How it was run: as §3

barnyardgrass [19] = experiment: as above; settings: dose 3.2 g/a, three weeks after application
How it was run: as §3

redroot pigweed [20] = experiment: as above; settings: dose 3.2 g/a, three weeks after application
How it was run: as §3

common lambsquater [21] = experiment: as above; settings: dose 3.2 g/a, three weeks after application
How it was run: as §3

common ragweed [22] = experiment: as above; settings: dose 3.2 g/a, three weeks after application
How it was run: as §3

velvetleaf [23] = experiment: as above; settings: dose 3.2 g/a, three weeks after application
How it was run: as §3

common chickweed [24] = experiment: as above; settings: dose 3.2 g/a, three weeks after application
How it was run: as §3

beadstraw [25] = experiment: as above; settings: dose 3.2 g/a, three weeks after application
How it was run: as §3

Italian ryegrass [26] = experiment: as above; settings: dose 3.2 g/a, three weeks after application
How it was run: as §3

water foxtail [27] = experiment: as above; settings: dose 3.2 g/a, three weeks after application
How it was run: as §3

giant foxtail [28] = experiment: as above; settings: dose 3.2 g/a, three weeks after application
How it was run: as §3

barnyardgrass [29] = experiment: Test Example 2: herbicidal effects during the vegetation period under submerged conditions; settings: treatment during the vegetation period under submerged conditions; dose 2.52 g/a
How it was run: (§4)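 Barnyardgrass, bulrush and ducksalad were co-sown in alluvial soil flooded to 4 cm and grown in a greenhouse at 25 to 30° C. At the 1- or 2-leaf stage, water-diluted emulsifiable concentrates went onto the water surface at set doses (g/a). Herbicidal effect was scored three weeks later on a graded scale.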

bulrush [30] = experiment: as above; settings: treatment during the vegetation period under submerged conditions; dose 2.52 g/a
How it was run: as §4

ducksalad [31] = experiment: as above; settings: treatment during the vegetation period under submerged conditions; dose 2.52 g/a
How it was run: as §4

posumbu knotweed [32] = experiment: Test Example 4: herbicidal effect in foliage treatment; settings: dose 3.2 g/a, three weeks after application
How it was run: as §3

Row | Compound | F: wild oat, herbicidal effect (evaluation scale 0-5) (wild oat [1]) | D: large crabgrass, herbicidal effect (evaluation scale 0-5) (large crabgrass [2]) | A: barnyardgrass, herbicidal effect (evaluation scale 0-5) (barnyardgrass [3]) | K: redroot pigweed, herbicidal effect (evaluation scale 0-5) (redroot pigweed [4]) | L: common lambsquater, herbicidal effect (evaluation scale 0-5) (common lambsquater [5]) | J: common ragweed, herbicidal effect (evaluation scale 0-5) (common ragweed [6]) | M: posumbu knotweed, herbicidal effect (evaluation scale 0-5) (posumbu knotweed [7]) | N: common chickweed, herbicidal effect (evaluation scale 0-5) (common chickweed [9]) | O: beadstraw, herbicidal effect (evaluation scale 0-5) (beadstraw [10]) | H: Italian ryegrass, herbicidal effect (evaluation scale 0-5) (Italian ryegrass [11]) | G: water foxtail, herbicidal effect (evaluation scale 0-5) (water foxtail [12]) | E: giant foxtail, herbicidal effect (evaluation scale 0-5) (giant foxtail [13]) | A: barnyardgrass, herbicidal effect (evaluation scale 0-5) (barnyardgrass [14]) | B: bulrush, herbicidal effect (evaluation scale 0-5) (bulrush [15]) | C: ducksalad, herbicidal effect (evaluation scale 0-5) (ducksalad [16]) | a: transplanted rice, effect on crop (evaluation scale 0-5) (transplanted rice) | F: wild oat, herbicidal effect (wild oat [17]) | D: large crabgrass, herbicidal effect (large crabgrass [18]) | A: barnyardgrass, herbicidal effect (barnyardgrass [19]) | K: redroot pigweed, herbicidal effect (redroot pigweed [20]) | other results
1 | O=C1CC(C(F)(F)F)OCN1Cc1ccccc1NS(=O)(=O)C(F)(F)F (stereo not shown) [II-14] | 0 (mortality of less than 5% (almost ineffective)) | 5 (mortality of 90% or above (nearly complete death)) | 5 (mortality of 90% or above (nearly complete death)) | 4 (mortality of at least 70% and less than 90%) | 4 (mortality of at least 70% and less than 90%) | 4 (mortality of at least 70% and less than 90%) | 5 (mortality of 90% or above (nearly complete death)) | 5 (mortality of 90% or above (nearly complete death)) | 5 (mortality of 90% or above (nearly complete death)) | 3 (mortality of at least 40% and less than 70%) | 5 (mortality of 90% or above (nearly complete death)) | 4 (mortality of at least 70% and less than 90%) | 5 (mortality of 90% or above (nearly complete death)) | 5 (mortality of 90% or above (nearly complete death)) | 5 (mortality of 90% or above (nearly complete death)) | 0 (mortality of less than 5% (almost ineffective)) | 0 (mortality of less than 5% (almost ineffective)) | 4 (mortality of at least 70% and less than 90%) | 5 (mortality of 90% or above (nearly complete death)) | 0 (mortality of less than 5% (almost ineffective)) | I: velvetleaf, herbicidal effect (evaluation scale 0-5) (velvetleaf [8]): 5 (mortality of 90% or above (nearly complete death)); L: common lambsquater, herbicidal effect (common lambsquater [21]): 4 (mortality of at least 70% and less than 90%); J: common ragweed, herbicidal effect (common ragweed [22]): 3 (mortality of at least 40% and less than 70%); I: velvetleaf, herbicidal effect (velvetleaf [23]): 4 (mortality of at least 70% and less than 90%); N: common chickweed, herbicidal effect (common chickweed [24]): 3 (mortality of at least 40% and less than 70%); O: beadstraw, herbicidal effect (beadstraw [25]): 3 (mortality of at least 40% and less than 70%); H: Italian ryegrass, herbicidal effect (Italian ryegrass [26]): 3 (mortality of at least 40% and less than 70%); G: water foxtail, herbicidal effect (water foxtail [27]): 5 (mortality of 90% or above (nearly complete death)); E: giant foxtail, herbicidal effect (giant foxtail [28]): 4 (mortality of at least 70% and less than 90%); A: barnyardgrass, herbicidal effect (evaluation scale 0-5) (barnyardgrass [29]): 5 (mortality of 90% or above (nearly complete death)); B: bulrush, herbicidal effect (evaluation scale 0-5) (bulrush [30]): 5 (mortality of 90% or above (nearly complete death)); C: ducksalad, herbicidal effect (evaluation scale 0-5) (ducksalad [31]): 5 (mortality of 90% or above (nearly complete death))
2 | CCOC(=O)N(c1ccccc1CN1COC(C(F)(F)F)CC1=O)S(=O)(=O)C(F)(F)F (stereo not shown) [II-15] | 0 (mortality of less than 5% (almost ineffective)) | 5 (mortality of 90% or above (nearly complete death)) | 4 (mortality of at least 70% and less than 90%) | 4 (mortality of at least 70% and less than 90%) | 4 (mortality of at least 70% and less than 90%) | 4 (mortality of at least 70% and less than 90%) | 0 (mortality of less than 5% (almost ineffective)) | 4 (mortality of at least 70% and less than 90%) | 0 (mortality of less than 5% (almost ineffective)) | 4 (mortality of at least 70% and less than 90%) | 5 (mortality of 90% or above (nearly complete death)) | 0 (mortality of less than 5% (almost ineffective)) | 5 (mortality of 90% or above (nearly complete death)) | 5 (mortality of 90% or above (nearly complete death)) | 5 (mortality of 90% or above (nearly complete death)) | 0 (mortality of less than 5% (almost ineffective)) | 0 (mortality of less than 5% (almost ineffective)) | 4 (mortality of at least 70% and less than 90%) | 4 (mortality of at least 70% and less than 90%) | 0 (mortality of less than 5% (almost ineffective)) | L: common lambsquater, herbicidal effect (common lambsquater [21]): 4 (mortality of at least 70% and less than 90%); J: common ragweed, herbicidal effect (common ragweed [22]): 3 (mortality of at least 40% and less than 70%); M: posumbu knotweed, herbicidal effect (posumbu knotweed [32]): 3 (mortality of at least 40% and less than 70%); I: velvetleaf, herbicidal effect (velvetleaf [23]): 5 (mortality of 90% or above (nearly complete death)); N: common chickweed, herbicidal effect (common chickweed [24]): 4 (mortality of at least 70% and less than 90%); O: beadstraw, herbicidal effect (beadstraw [25]): 4 (mortality of at least 70% and less than 90%); H: Italian ryegrass, herbicidal effect (Italian ryegrass [26]): 1 (mortality of at least 5% and less than 20%); G: water foxtail, herbicidal effect (water foxtail [27]): 5 (mortality of 90% or above (nearly complete death)); E: giant foxtail, herbicidal effect (giant foxtail [28]): 3 (mortality of at least 40% and less than 70%); A: barnyardgrass, herbicidal effect (evaluation scale 0-5) (barnyardgrass [29]): 5 (mortality of 90% or above (nearly complete death)); B: bulrush, herbicidal effect (evaluation scale 0-5) (bulrush [30]): 5 (mortality of 90% or above (nearly complete death)); C: ducksalad, herbicidal effect (evaluation scale 0-5) (ducksalad [31]): 5 (mortality of 90% or above (nearly complete death))
